In the supplement of paper PMC12317010:
Counter-ions that a name gives are not always drawn.

Assay: collision cross section in nitrogen (drift tube, single-field); higher = larger gas-phase ion size
[1] = ion type: [M+H], ion source: APCI, ion mode: Positive
[2] = ion type: [M+H], ion source: ESI, ion mode: Positive
[3] = ion type: [M+Na], ion source: ESI, ion mode: Positive
[4] = ion type: [M-H], ion source: ESI, ion mode: Negative
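Also: chemical standards at 10 µM analysed by drift tube IMS-QTOF MS in about 3.95 torr nitrogen, mean of duplicate injections differing ≤1%, mass error below 10 ppm.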

SMILES: CN1[C@@H]2C[C@@H](OC(=O)[C@H](CO)c3ccccc3)C[C@H]1[C@@H]1O[C@@H]12 [Scopolamine hydrobromide]
- collision cross section in nitrogen [1]: 170.8 Å²
- collision cross section in nitrogen [2]: 171.7 Å²

SMILES: CN1[C@@H]2C[C@@H](OC(=O)[C@H](CO)c3ccccc3)C[C@H]1[C@@H]1O[C@@H]12 [Scopolamine hydrochloride]
- collision cross section in nitrogen [1]: 172.2 Å²
- collision cross section in nitrogen [2]: 171.7 Å²

SMILES: CCNc1nc(NC(C)CC)nc(OC)n1 (configuration not stated) [Secbumeton]
- collision cross section in nitrogen [1]: 155.3 Å²
- collision cross section in nitrogen [2]: 155.2 Å²
- collision cross section in nitrogen [3]: 172.2 Å²

SMILES: CCCC(=NOCC)C1=C(O)CC(CC(C)SCC)CC1=O (configuration not stated) [Sethoxydim]
- collision cross section in nitrogen [1]: 181.6 Å²
- collision cross section in nitrogen [2]: 181 Å²
- collision cross section in nitrogen [4]: 178.5 Å²

SMILES: CCNc1nc(Cl)nc(NCC)n1 [Simazine]
- collision cross section in nitrogen [1]: 143.3 Å²
- collision cross section in nitrogen [2]: 144 Å²

SMILES: CCNc1nc(NCC)nc(SC)n1 [Simetryn]
- collision cross section in nitrogen [1]: 149.6 Å²
- collision cross section in nitrogen [2]: 149.5 Å²

SMILES: CC(C)COC(=O)CC(C(=O)OCC(C)C)S(=O)(=O)O (configuration not stated) [Sodium 1,4-diisobutyl sulfosuccinate]
- collision cross section in nitrogen [4]: 174.4 Å²

SMILES: O=S(=O)(O)c1cccc2ccccc12 [Sodium 1-naphthalenesulfonate]
- collision cross section in nitrogen [4]: 141.6 Å²

SMILES: Cc1ccc(C)c(S(=O)(=O)O)c1 [Sodium 2,5-dimethylbenzenesulfonate]
- collision cross section in nitrogen [4]: 138.5 Å²

SMILES: O=S(=O)(O)CCN1CCN(CCO)CC1 [Sodium 2-[4-(2-hydroxyethyl)piperazin-1-yl]ethanesulfonate]
- collision cross section in nitrogen [2]: 151.1 Å²
- collision cross section in nitrogen [3]: 167.9 Å²

SMILES: O=C1c2ccccc2C(=O)c2cc(S(=O)(=O)O)ccc21 [Sodium 2-anthraquinonesulfonate]
- collision cross section in nitrogen [4]: 162 Å²

SMILES: O=Cc1ccccc1S(=O)(=O)O [Sodium 2-formylbenzenesulfonate]
- collision cross section in nitrogen [4]: 130.9 Å²

SMILES: Sc1nc2ccccc2s1 [Sodium 2-mercaptobenzothiolate]
- collision cross section in nitrogen [4]: 127.7 Å²

SMILES: COc1ccc([N+](=O)[O-])cc1O [Sodium 2-methoxy-5-nitrophenolate]
- collision cross section in nitrogen [4]: 129.6 Å²

SMILES: Cc1ccccc1S(=O)(=O)O [Sodium 2-methylbenzenesulfonate]
- collision cross section in nitrogen [4]: 131.7 Å²

SMILES: C=C(C)CS(=O)(=O)O [Sodium 2-methylprop-2-ene-1-sulfonate]
- collision cross section in nitrogen [4]: 124.2 Å²

SMILES: O=[N+]([O-])c1ccccc1O [Sodium 2-nitrophenolate]
- collision cross section in nitrogen [4]: 121.6 Å²

SMILES: Oc1ccccc1-c1ccccc1 [Sodium 2-phenylphenate tetrahydrate]
- collision cross section in nitrogen [4]: 136.6 Å²

SMILES: O=C(O)c1cccc([N+](=O)[O-])c1 [Sodium 3-nitrobenzoate]
- collision cross section in nitrogen [4]: 131.2 Å²

SMILES: CC(C)c1ccc(S(=O)(=O)O)cc1 [Sodium 4-isopropylbenzenesulfonate]
- collision cross section in nitrogen [4]: 147.5 Å²

SMILES: Cc1ccc(S(=O)(=O)O)cc1 [Sodium 4-methylbenzenesulfonate]
- collision cross section in nitrogen [4]: 135.2 Å²

SMILES: O=[N+]([O-])c1ccc(O)cc1 [Sodium 4-nitrophenolate]
- collision cross section in nitrogen [4]: 120.5 Å²

SMILES: CCCCCCCCc1ccc(S(=O)(=O)O)cc1 [Sodium 4-octylbenzenesulfonate]
- collision cross section in nitrogen [4]: 173.9 Å²

SMILES: O=S(=O)(O)c1ccc2cc(O)ccc2c1 [Sodium 6-hydroxynaphthalene-2-sulfonate]
- collision cross section in nitrogen [4]: 148.7 Å²

SMILES: N[C@@H](CCC(=O)O)C(=O)O [Sodium L-glutamate hydrate]
- collision cross section in nitrogen [4]: 125.4 Å²

SMILES: CC(C)C1=CC2=CC[C@@H]3[C@](C)(CCC[C@@]3(C)C(=O)O)[C@H]2CC1 [Sodium abietate]
- collision cross section in nitrogen [4]: 182 Å²

SMILES: COc1cccc2c1cc([N+](=O)[O-])c1c(C(=O)O)cc3c(c12)OCO3 [Sodium aristolochate-I]
- collision cross section in nitrogen [3]: 185.6 Å²

SMILES: [O-][Cl+]O [Sodium chlorite]
- collision cross section in nitrogen [4]: 105.2 Å²

SMILES: CCCCCCCCCCOS(=O)(=O)O [Sodium decyl sulfate]
- collision cross section in nitrogen [4]: 158.1 Å²

SMILES: CC(C)CP(=S)(S)CC(C)C [Sodium diisobutyldithiophosphinate]
- collision cross section in nitrogen [4]: 146.5 Å²

SMILES: CCCCCCCCCCCCc1ccccc1S(=O)(=O)O [Sodium dodecylbenzenesulfonate]
- collision cross section in nitrogen [3]: 167.5 Å²
- collision cross section in nitrogen [4]: 186.3 Å²

SMILES: CCCCC(CC)COS(=O)(=O)O (configuration not stated) [Sodium ethasulfate hydrate]
- collision cross section in nitrogen [4]: 150.1 Å²

SMILES: CCCCC(CC)COS(=O)(=O)O (configuration not stated) [Sodium ethasulfate]
- collision cross section in nitrogen [4]: 150.5 Å²

SMILES: C=CS(=O)(=O)O [Sodium ethenesulfonate]
- collision cross section in nitrogen [4]: 113.6 Å²

SMILES: CCCCCCCCCCCCCCCCOS(=O)(=O)O [Sodium hexyldecyl sulfate]
- collision cross section in nitrogen [4]: 181.3 Å²

SMILES: Cc1ccc(S(=O)(=O)O)c(C)c1 [Sodium m-xylene-4-sulfonate]
- collision cross section in nitrogen [4]: 138.9 Å²

SMILES: COS(=O)(=O)O [Sodium methyl sulfate]
- collision cross section in nitrogen [4]: 113.1 Å²

SMILES: CCCCCCCCCCCCCCOS(=O)(=O)O [Sodium myristyl sulfate]
- collision cross section in nitrogen [4]: 173.4 Å²

SMILES: O=C(O)c1cccnc1 [Sodium nicotinate]
- collision cross section in nitrogen [1]: 123.5 Å²
- collision cross section in nitrogen [2]: 124.5 Å²

SMILES: CCCCCCCCCOS(=O)(=O)O [Sodium nonyl sulfate]
- collision cross section in nitrogen [4]: 154.5 Å²

SMILES: CCCCCCCCOS(=O)(=O)O [Sodium octyl sulfate]
- collision cross section in nitrogen [4]: 151.3 Å²

SMILES: CC(C)(CO)[C@@H](O)C(=O)NCCC(=O)O [Sodium pantothenate]
- collision cross section in nitrogen [3]: 151.2 Å²
- collision cross section in nitrogen [4]: 147.1 Å²

SMILES: F[B-](F)(F)F [Sodium tetrafluoroborate]
- collision cross section in nitrogen (ion source: ESI, ion mode: Negative, ion type: [M]- (permanent anion)): 101 Å²

SMILES: CCCCCCCCCCCCCOS(=O)(=O)O [Sodium tridecyl sulfate]
- collision cross section in nitrogen [4]: 170 Å²

SMILES: CCCC(CCC)C(=O)O [Sodium valproate]
- collision cross section in nitrogen [4]: 137 Å²

SMILES: CC(=O)CC(c1ccccc1)c1c(O)c2ccccc2oc1=O (configuration not stated) [Sodium warfarin]
- collision cross section in nitrogen [1]: 167.1 Å²
- collision cross section in nitrogen [2]: 167 Å²
- collision cross section in nitrogen [3]: 178.6 Å²
- collision cross section in nitrogen [4]: 172.5 Å²

SMILES: CCCCCCCC/C=C\CCCCCCCC(=O)OC[C@@H](O)[C@H]1OC[C@H](O)[C@H]1O [Sorbitan, mono-(9Z)-9-octadecenoate]
- collision cross section in nitrogen [3]: 211.8 Å²
- collision cross section in nitrogen [4]: 207.7 Å²

SMILES: C[C@@H]1CN(c2c(F)c(N)c3c(=O)c(C(=O)O)cn(C4CC4)c3c2F)C[C@H](C)N1 [Sparfloxacin]
- collision cross section in nitrogen [2]: 190.2 Å²

SMILES: CCC(C)(C)C(=O)OC1=C(c2ccc(Cl)cc2Cl)C(=O)OC12CCCCC2 [Spirodiclofen]
- collision cross section in nitrogen [3]: 209.5 Å²

SMILES: CCOC(=O)OC1=C(c2cc(C)ccc2C)C(=O)N[C@]12CC[C@@H](OC)CC2 [Spirotetramat]
- collision cross section in nitrogen [1]: 190.2 Å²
- collision cross section in nitrogen [2]: 189.3 Å²
- collision cross section in nitrogen [3]: 202.3 Å²

SMILES: CCCN(CC)CC1COC2(CCC(C(C)(C)C)CC2)O1 (configuration not stated) [Spiroxamine]
- collision cross section in nitrogen [2]: 176.6 Å²

SMILES: O=C1C[C@@H]2OCC=C3CN4CC[C@]56c7ccccc7N1[C@H]5[C@H]2[C@H]3C[C@H]46 [Strychnine hemisulphate salt]
- collision cross section in nitrogen [1]: 172.6 Å²
- collision cross section in nitrogen [2]: 175.8 Å²

SMILES: O=C1C[C@@H]2OCC=C3CN4CC[C@]56c7ccccc7N1[C@H]5[C@H]2[C@H]3C[C@H]46 [Strychnine]
- collision cross section in nitrogen [1]: 172 Å²
- collision cross section in nitrogen [2]: 175.2 Å²

SMILES: OC[C@H]1O[C@H](O[C@]2(CCl)O[C@H](CCl)[C@@H](O)[C@@H]2O)[C@H](O)[C@@H](O)[C@H]1Cl [Sucralose]
- collision cross section in nitrogen [3]: 179.7 Å²
- collision cross section in nitrogen [4]: 174.5 Å²

SMILES: CC(=O)OC[C@H]1O[C@@](COC(C)=O)(O[C@H]2O[C@H](COC(C)=O)[C@@H](OC(C)=O)[C@H](OC(C)=O)[C@H]2OC(C)=O)[C@@H](OC(C)=O)[C@@H]1OC(C)=O [Sucrose octaacetate]
- collision cross section in nitrogen [3]: 238.1 Å²

SMILES: NS(=O)(=O)O [Sulfamic acid]
- collision cross section in nitrogen [4]: 112 Å²

SMILES: O=C(O)c1cc(N=Nc2ccc(S(=O)(=O)Nc3ccccn3)cc2)ccc1O [Sulfasalazine]
- collision cross section in nitrogen [1]: 203.9 Å²
- collision cross section in nitrogen [2]: 203.6 Å²
- collision cross section in nitrogen [4]: 197.5 Å²

SMILES: Nc1ccc(S(=O)(=O)Nc2nccs2)cc1 [Sulfathiazole sodium]
- collision cross section in nitrogen [1]: 153.3 Å²
- collision cross section in nitrogen [2]: 153.6 Å²
- collision cross section in nitrogen [3]: 167.2 Å²
- collision cross section in nitrogen [4]: 154.1 Å²

SMILES: Nc1ccc(S(=O)(=O)Nc2nccs2)cc1 [Sulfathiazole]
- collision cross section in nitrogen [1]: 153.5 Å²
- collision cross section in nitrogen [2]: 153.9 Å²
- collision cross section in nitrogen [3]: 167.5 Å²
- collision cross section in nitrogen [4]: 154.3 Å²

SMILES: Cc1nn(-c2cc(NS(C)(=O)=O)c(Cl)cc2Cl)c(=O)n1C(F)F [Sulfentrazone]
- collision cross section in nitrogen [2]: 178.2 Å²
- collision cross section in nitrogen [3]: 184 Å²
- collision cross section in nitrogen [4]: 182.4 Å²

SMILES: O=C(O)CC(C(=O)O)S(=O)(=O)O (configuration not stated) [Sulfosuccinic acid]
- collision cross section in nitrogen [4]: 124.5 Å²

SMILES: CCOP(=S)(OCC)OP(=S)(OCC)OCC [Sulfotep]
- collision cross section in nitrogen [3]: 172.2 Å²

SMILES: CC1=C(CC(=O)O)c2cc(F)ccc2/C1=C\c1ccc(S(C)=O)cc1 (configuration not stated) [Sulindac]
- collision cross section in nitrogen [2]: 196.2 Å²

SMILES: COc1cc(O)c(C(=O)c2ccccc2)cc1S(=O)(=O)O [Sulisobenzone hydrate]
- collision cross section in nitrogen [4]: 167.7 Å²

SMILES: COc1cc(O)c(C(=O)c2ccccc2)cc1S(=O)(=O)O [Sulisobenzone]
- collision cross section in nitrogen [4]: 168.1 Å²

SMILES: Cc1cc(CCC(=O)OCC(C)(C)C2OCC3(CO2)COC(C(C)(C)COC(=O)CCc2cc(C)c(O)c(C(C)(C)C)c2)OC3)cc(C(C)(C)C)c1O (configuration not stated) [Sumilizer GA 80]
- collision cross section in nitrogen [1]: 268.1 Å²
- collision cross section in nitrogen [3]: 261.6 Å²
- collision cross section in nitrogen (ion type: [M+], ion source: APCI, ion mode: Positive): 269.1 Å²
- collision cross section in nitrogen [4]: 268.7 Å²

SMILES: CCN(CC)CCNC(=O)c1c(C)[nH]c(/C=C2\C(=O)Nc3ccc(F)cc32)c1C [Sunitinib malate]
- collision cross section in nitrogen [2]: 207 Å²
- collision cross section in nitrogen [3]: 214.3 Å²
